The text below walks through data of US20080152715A1, “Method for preparing nanoparticles comprising vitamin K and poly-isopropyl-butyl methacrylate-acrylic acid copolymer with supercritical fluid using molecular association theory” (Seoul National Universtiy Industry Foundation, priority 2006, published 2008).

A short description of the series: Particle size measurement using a Particle Size Analyzer. Format: physicochemical. The note with it: pretreated vitamin K, before the supercritical process. As to the method:
The pretreated vitamin K has a particle size of 50 to 100 microns. In Examples, the particle sizes of vitamin K nanoparticles prepared by the following conditions were measured using a Particle Size Analyzer. Here, spherical fine particles having a particle size of 50 to 300 nm can be obtained according to the presence or absence of a poly-isopropyl-butyl methacrylate-acrylic acid copolymer as a biodegradable polymer, and the operating conditions.
As shown in the following Table 1, the present Examples represent the operating conditions of the reactor in the step of formation of a spherical structure. The temperature and the pressure of the reactor must be each above 304.2 K and 73.8 bar, which correspond to the critical temperature and the critical pressure of carbon dioxide, respectively. The operating parameters in the reactor are the temperature and the pressure in reactor, the amount of carbon dioxide as a supercritical fluid, and the amount of solution prepared in the preparation step. In Example 1, the solution contains vitamin K of 0.0016 wt % alone without a biodegradable polymer. In Example 2 to 8, the solution contains both of vitamin K of 0.0016 wt % and the poly-isopropyl-butyl methacrylate-acrylic acid copolymer of 0.0014 wt % as a biodegradable polymer. […] In Examples 1 and 3, the change was measured at 313K and 323K by adjusting the reactor temperature. […]

For the substance vitamin K [pretreated vitamin K], the particle size lay within 50 to 100 microns.
